From patent US20080176866A1, “NOVEL HETARYL-PHENYLENEDIAMINE-PYRIMIDINES AS PROTEIN KINASE INHIBITORS” (priority 2006, published 2008) come the findings set out here.

SMILES strings stand for the structures.

For one assay, the target named is T1, human Aurora-C (Homo sapiens, UniProt Q9UQB9).
T1 construct: GST; made in house; host or cells: transiently transfected HEK293 cells
T1 sequence (Q9UQB9 1-309): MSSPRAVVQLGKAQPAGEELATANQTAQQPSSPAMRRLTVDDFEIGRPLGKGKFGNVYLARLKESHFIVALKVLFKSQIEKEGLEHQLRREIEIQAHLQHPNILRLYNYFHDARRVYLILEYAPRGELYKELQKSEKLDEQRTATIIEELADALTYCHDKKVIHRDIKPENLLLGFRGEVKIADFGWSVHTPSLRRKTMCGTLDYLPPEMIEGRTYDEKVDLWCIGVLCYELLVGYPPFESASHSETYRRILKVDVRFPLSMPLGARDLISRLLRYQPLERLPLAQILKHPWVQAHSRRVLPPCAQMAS
Kind of assay: Aurora-C kinase assay (HTRF). Type of assay: biochemical. The conditions noted are these: GST-human Aurora-C, 10 μM ATP. The method, then:
The Aurora-C inhibitory activity of the substances of this invention was measured in the Aurora-C-HTRF assay (HTRF=Homogeneous Time Resolved Fluorescence) described in the following paragraphs.
Recombinant fusion protein of GST and human Aurora-C was expressed in transiently transfected HEK293 cells and purified by affinity chromatography on glutathione-Sepharose. The substrate used for the kinase reaction was the biotinylated peptide biotin-Ttds-FMRLRRLSTKYRT (C terminus in amide form) which can be purchased for example from JERINI Peptide Technologies (Berlin). Aurora-C was incubated in the presence of various concentrations of test substances in 5 μL of assay buffer [25 mM Hepes/NaOH pH 7.4, 0.5 mM MnCl2, 2.0 mM dithiothreitol, 0.1 mM sodium orthovanadate, 10 μM adenosine triphosphate (ATP), […] substrate, 0.01% (v/v) TritonX-100 (Sigma), 0.05% (w/v) bovine serum albumin (BSA), 1% (v/v) dimethyl sulphoxide] at 22° C. for 60 min. The concentration of Aurora-C was adapted to the particular activity of the enzyme and adjusted so that the assay operated in the linear range. Typical concentrations were in the region of 0.3 nM. The reaction was stopped by adding 5 μl of a solution of HTRF detection reagents (0.2 μM streptavidin-XLent and 1.4 nM anti-phospho-(Ser/Thr)-Akt substrate-Eu-cryptate (C is biointernational, France, product No. 61P02KAE), a Europium-cryptate-labelled phospho-(Ser/Thr)-Akt substrate antibody [product #9611B, Cell Signaling Technology, Danvers, Mass., USA]) in aqueous EDTA solution (40 mM EDTA, 400 mM KF, 0.05% (w/v) bovine serum albumin (BSA) in 25 mM HEPES/NaOH pH 7.0).
(§1) The resulting mixture was incubated at 22° C. for 1 h in order to allow formation of a complex of the biotinylated phosphorylated substrate and the detection reagents. The amount of phosphorylated substrate was then estimated by measuring the resonance energy transfer from the anti-phospho-(Ser/Thr)-Akt substrate-Eu cryptate to the streptavidin-XLent. For this purpose, the fluorescence emissions at 620 nm and 665 nm after excitation at 350 nm were measured in an HTRF measuring instrument, e.g. a Rubystar (BMG Labtechnologies, Offenburg, Germany) or a Viewlux (Perkin-Elmer). The ratio of the emissions at 665 nm and at 622 nm was taken as a measure of the amount of phosphorylated substrate. The data were normalized (enzymic reaction without inhibitor=0% inhibition, all other assay components but no enzyme=100% inhibition) and IC50 values were calculated with a 4-parameter fit using an inhouse software.
In general terms: Time-resolved FRET reads energy transfer from a long-lived donor to a nearby acceptor.

A further assay has as its target T2, KDR kinase (Homo sapiens, UniProt P35968).
T2 construct: GST; purchased ProQinase GmbH, Freiburg; host or cells: baculovirus-infected insect cells (Sf9)
Kind of assay: KDR kinase assay (HTRF). Type of assay: biochemical. The settings on record: KDR kinase-GST, 10 μM ATP. The method, then: The KDR-inhibitory activity of the substances of this invention was measured in the KDR-HTRF assay (HTRF=Homogeneous Time Resolved Fluorescence) described in the following paragraphs.
Recombinant KDR kinase-GST fusion protein purified from baculovirus-infected insect cells (Sf9) was purchased from ProQinase GmbH, Freiburg. The substrate used for the kinase reaction was the biotinylated peptide biotin-Ahx-DFGLARDMYDKEYYSVG (C terminus in acid form) which can be purchased for example from Biosynthan GmbH (Berlin-Buch, Germany).
KDR kinase was incubated in the presence of various concentrations of test substances in 5 μL of assay buffer [50 mM Hepes/NaOH pH 7.0, 25 mM MgCl2, 5 mM MnCl2, 1.0 mM dithiothreitol, 0.1 mM sodium orthovanadate, 10 μM adenosine triphosphate (ATP), 0.5 μM substrate, 0.001% (v/v) Nonidet-P40 (Sigma), 1% (v/v) dimethyl sulphoxide] at 22° C. for 45 min. The concentration of KDR was adapted to the particular activity of the enzyme and adjusted so that the assay operated in the linear range. The reaction was stopped by adding 5 μl of a solution of HTRF detection reagents (0.1 μM streptavidin-XLent and 2 nM PT66-Eu chelate, a Europium chelate-labelled anti-phospho-tyrosine antibody from Perkin Elmer) in aqueous EDTA solution (125 mM EDTA, 0.2% (w/v) bovine serum albumin (BSA) in 50 mM HEPES/NaOH pH 7.0).
as §1, with “of” for “of a complex of”, “streptavidin-XLent and PT66-Eu chelate.” for “detection reagents.”, “PT66-Eu chelate” for “anti-phospho-(Ser/Thr)-Akt substrate-Eu cryptate”

The next assay addresses T3, CDK2/CycE (Homo sapiens, UniProt P24941).
T3 construct: GST; purchased ProQinase GmbH, Freiburg; host or cells: baculovirus-infected insect cells (Sf9)
The assay can be described thus: CDK2/CycE kinase assay (HTRF). Type of assay: biochemical. The settings on record: 10 μM ATP. The method, then: The CDK2/CycE inhibitory activity of the substances of this invention was measured in the CDK2/CycE-HTRF assay (HTRF=Homogeneous Time Resolved Fluorescence) described in the following paragraphs.
Recombinant CDK2-GST and CycE-GST fusion proteins purified from baculovirus-infected insect cells (Sf9) were purchased from ProQinase GmbH, Freiburg. The substrate used for the kinase reaction was the biotinylated peptide biotin-Ttds-YISPLKSPYKISEG (C terminus in amide form) which can be purchased for example from JERINI Peptide Technologies (Berlin).
CDK2/CycE was incubated in the presence of various concentrations of test substances in 5 μL of assay buffer [50 mM Tris/HCl pH 8.0, 10 mM MgCl2, 1.0 mM dithiothreitol, 0.1 mM sodium orthovanadate, 10 μM adenosine triphosphate (ATP), 0.75 μM substrate, 0.01% (v/v) Nonidet-P40 (Sigma), 1% (v/v) dimethyl sulphoxide] at 22° C. for 60 min. The concentration of CDK2/CycE was adapted to the particular activity of the enzyme and adjusted so that the assay operated in the linear range. Typical concentrations were in the region of 1 ng/ml. The reaction was stopped by adding 5 μl of a solution of HTRF detection reagents (0.2 μM streptavidin-XLent and 3.4 nM phospho-(Ser) CDKs substrate antibody [product #2324B, Cell Signaling Technology, Danvers, Mass., USA] and 4 nM Prot-A-EuK [protein A labelled with Europium cryptate from C is biointernational, France, product No. 61 PRAKLB]) in aqueous EDTA solution (100 mM EDTA, 800 mM KF, 0.2% (w/v) bovine serum albumin (BSA) in 100 mM HEPES/NaOH pH 7.0).
as §1, with “Prot-A-EuK” for “anti-phospho-(Ser/Thr)-Akt substrate-Eu cryptate”

Another assay addresses T4, CDK1/CycB (Homo sapiens, UniProt P06493).
T4 construct: GST; purchased ProQinase GmbH, Freiburg; host or cells: baculovirus-infected insect cells (Sf9)
The assay can be described thus: CDK1/CycB kinase assay. It is filed as biochemical. The settings on record: 0.5 μM ATP, histone IIIS, 33P filter assay. The method, then:
Recombinant CDK1- and CycB-GST fusion proteins, purified from baculovirus-infected insect cells (Sf9), were purchased from ProQinase GmbH, Freiburg. The histone IIIS used as kinase substrate can be purchased from Sigma.
CDK1/CycB (5 ng/μL) was incubated in the presence of various concentrations of test substances (0 μM, and within the range 0.01-100 μM) in 40 μL of assay buffer [50 mM Tris/HCl pH 8.0, 10 mM MgCl2, 0.1 mM Na ortho-vanadate, 1.0 mM dithiothreitol, 0.025% PEG 20000, 0.5 μM ATP, 10 μM histone IIIIS, 0.2 μCi/measurement point ^33P-gamma ATP, 0.05% NP40, 1.25% dimethyl sulphoxide] at 22° C. for 10 min. The reaction was stopped by adding EDTA solution (250 mM, pH 8.0, 15 μl/measurement point).
15 μl of each reaction mixture were loaded onto P30 filter strips (from Wallac), and non-incorporated ^33P-ATP was removed by washing the filter strips three times in 0.5% strength phosphoric acid for 10 min each time. After the filter strips had been dried at 70° C. for 1 hour, the filter strips were covered with scintillator strips (MeltiLex™ A, from Wallac) and baked at 90° C. for 1 hour. The amount of incorporated ^33P (substrate phosphorylation) was determined by scintillation measurement in a gamma radiation counter (Wallac).
The measured data were normalized to 0% inhibition (enzyme reaction without inhibitor) and 100% inhibition (all assay components except enzyme). The IC50 values were determined by means of a 4-parameter fit using the company's own software.

The subject of assay [1] is human MCF7 breast tumour cells. The assay can be described thus: MCF7 proliferation assay. Type of assay: cell-based. The conditions noted are these: 96 h, 4 days incubation, crystal violet staining. The method, then:
Cultivated human MCF7 breast tumour cells (ATCC HTB-22) were plated out in a density of 5000 cells/measurement point in 200 μl of growth medium (RPMI1640, 10% foetal calf serum, 2 mU/mL insulin, 0.1 nM oestradiol) in a 96-well multititre plate. After 24 hours, the cells from a plate (zero plate) were stained with crystal violet (see below), while the medium in the other plates was replaced by fresh culture medium (200 μl) to which the test substances had been added in various concentrations (0 μM, and in the range 0.01-30 μM; the final concentration of the solvent dimethyl sulphoxide was 0.5%). The cells were incubated in the presence of the test substances for 4 days. The cell proliferation was determined by staining the cells with crystal violet: the cells were fixed by adding 20 μl/measurement point of an 11% strength glutaraldehyde solution at room temperature for 15 min. After the fixed cells had been washed three times with water, the plates were dried at room temperature. The cells were stained by adding 100 μl/measurement point of a 0.1% strength crystal violet solution (pH adjusted to pH 3 by adding acetic acid). After the stained cells had been washed three times with water, the plates were dried at room temperature. The dye was dissolved by adding 100 μl/measurement point of a 10% strength acetic acid solution, and the extinction was determined by photometry at a wavelength of 595 nm. The percentage change in cell growth was calculated by normalizing the measurements to the extinctions of the zero point plate (=0%) and the extinction of the untreated (0 μM) cells (=100%). The IC50 values were determined by means of a 4-parameter fit using the company's own software.

The IC50 is the concentration that gives 50% inhibition. Read a high IC50 as lower potency.

T2 sequence (P35968 807-1356 limits assumed): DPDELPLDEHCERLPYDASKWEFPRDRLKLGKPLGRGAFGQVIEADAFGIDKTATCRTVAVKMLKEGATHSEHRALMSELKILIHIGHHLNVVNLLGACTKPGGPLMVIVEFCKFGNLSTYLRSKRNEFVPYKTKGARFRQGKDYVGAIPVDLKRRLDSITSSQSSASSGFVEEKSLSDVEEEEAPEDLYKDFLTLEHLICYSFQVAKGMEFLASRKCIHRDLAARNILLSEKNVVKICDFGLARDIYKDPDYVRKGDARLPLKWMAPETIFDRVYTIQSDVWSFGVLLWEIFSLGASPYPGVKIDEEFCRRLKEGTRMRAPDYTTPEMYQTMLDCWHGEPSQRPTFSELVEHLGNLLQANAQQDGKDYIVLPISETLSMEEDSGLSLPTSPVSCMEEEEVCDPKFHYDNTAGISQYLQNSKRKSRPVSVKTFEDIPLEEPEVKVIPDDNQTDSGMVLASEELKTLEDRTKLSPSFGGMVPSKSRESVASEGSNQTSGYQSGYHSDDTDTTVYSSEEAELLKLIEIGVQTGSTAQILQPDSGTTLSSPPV
T4 sequence (P06493 whole entry): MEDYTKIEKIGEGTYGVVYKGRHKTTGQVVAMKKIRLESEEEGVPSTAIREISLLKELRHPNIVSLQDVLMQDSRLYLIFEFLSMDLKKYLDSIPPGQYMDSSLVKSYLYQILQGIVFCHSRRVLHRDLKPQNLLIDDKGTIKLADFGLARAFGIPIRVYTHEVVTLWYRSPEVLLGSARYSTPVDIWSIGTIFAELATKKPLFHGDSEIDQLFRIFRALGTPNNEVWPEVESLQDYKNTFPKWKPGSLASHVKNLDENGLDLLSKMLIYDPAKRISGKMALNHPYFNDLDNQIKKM
T4 sequence (P14635 whole entry partner): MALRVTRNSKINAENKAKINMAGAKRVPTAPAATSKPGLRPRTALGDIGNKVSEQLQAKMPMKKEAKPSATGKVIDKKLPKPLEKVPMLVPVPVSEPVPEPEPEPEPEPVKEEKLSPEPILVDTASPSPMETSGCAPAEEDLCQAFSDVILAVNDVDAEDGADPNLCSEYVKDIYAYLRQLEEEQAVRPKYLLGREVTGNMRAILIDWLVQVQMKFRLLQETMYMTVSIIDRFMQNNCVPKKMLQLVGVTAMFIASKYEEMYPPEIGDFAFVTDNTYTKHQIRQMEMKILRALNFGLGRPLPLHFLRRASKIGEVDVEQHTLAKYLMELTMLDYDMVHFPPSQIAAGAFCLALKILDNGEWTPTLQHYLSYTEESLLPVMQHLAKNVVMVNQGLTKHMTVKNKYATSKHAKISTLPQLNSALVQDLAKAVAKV

Turning to `Brc1cnc(Nc2cccc(Nc3ncc(Br)c(NCCc4c[nH]cn4)n3)c2)nc1NCCc1c[nH]cn1` [Example 28], the half-maximal inhibitory concentration (IC50) against human Aurora-C worked out at 120 nM; on KDR kinase, 23 nM; against CDK2/CycE, 670 nM.

On to `Cc1cc(C)nc(Sc2ccc(Nc3ncc(Br)c(O[C@H](C)[C@@H](C)O)n3)cc2)n1` [Example 41], for which the IC50 on CDK1/CycB came out at 98 nM; against KDR kinase it was 1400 nM; in assay [1], 800 nM; against CDK2/CycE it was 60 nM.
